Assay results published in a melting point compilation (Tetko et al.; mined from patent text by program, amines drawn as free bases though some values may be those of a salt).

melting point	SMILES
128 °C	O=C(Oc1ccccc1)N1Cc2ccccc2C2(Cc3ccccc3O2)C1 (stereo not drawn)
> 280 °C	Nc1cc(=O)[nH]c(=O)n1-c1ccccc1
138 to 140 °C	CN(Cc1cccc(Cl)c1)c1ccc(C(=O)O)nc1
328 °C	CCc1cccc(C)c1CNc1cc(C(=O)O)cn2c(C)nnc12
114 to 117 °C	CCCCCCCCCCCCCCCc1cc2c(C(=O)O)cccc2[nH]1
228 to 230 °C	COc1ccccc1-c1csc(Nc2ccc(C)cn2)n1
> 250 °C	O=C1Nc2ccc(F)c(F)c2C(=O)N2CC[C@@H]12
141 °C	O=[N+]([O-])c1nccn1C1CCCCC1O (stereo not drawn)
120 °C	Cc1ccccc1N(CC(=O)N(C)c1ccccc1)C(=O)CN1C(=O)c2ccccc2C1=O
111 to 112 °C	O=[N+]([O-])c1oc2ccc(CN3CCCC3)cc2c1-c1ccccc1
60 to 65 °C	CC1(C)Oc2ccc(OC(F)(F)F)cc2[C@@H](NC(=O)c2ccc(C(F)(F)F)cc2[N+](=O)[O-])[C@@H]1O
137 to 139 °C	Cc1c(CC(C)(C)C(=O)O)n(Cc2ccc(Cl)cc2)c2ccc(OCc3cccc(-c4ccccc4)n3)cc12
124 to 125 °C	COc1cc2c(cc1C)CCN(C)C2C1(C2C=CCCC2)CCC1 (stereo not drawn)
99 to 101 °C	COc1nc(OS(=O)(=O)C(F)(F)F)cc2cccnc12
249 to 251 °C	O=C(Nc1ccc(C(=O)O)cc1)OCc1nccn1-c1cc2cc(C(=O)O)c(=O)[nH]c2cc1Cl
69 to 71 °C	Cc1ccc([N+](=O)[O-])c2c1CC(C)O2 (stereo not drawn)
257 to 260 °C	CC(=O)Nc1nc2ccc(S(=O)(=O)n3c(COC(C)C(=O)O)cc4nc(Cl)ccc43)cc2s1 (stereo not drawn)
191 to 194 °C	Cc1cc2c(-c3cccc(/C=C/C(=O)O)c3)c(CC(=O)Nc3ccc(Cl)cc3C(F)(F)F)c(=O)oc2cc1Cl

melting point	SMILES
25 °C	COCCc1ccc(OCC(O)CO)cc1 (stereo not drawn)
200 to 202 °C	COc1ccc(C(=O)Nc2ccccc2)cc1NS(=O)(=O)c1ccc(C)cc1
> 225 °C	CCNC[C@H]1CCc2cc(F)cc(-c3c(Cl)cccc3Cl)c2O1
107 to 115 °C	COc1ccc(/C=C/c2cc(/C=C/c3ccc4cc[nH]c4c3)n[nH]2)c(OCc2ccccn2)c1
208 to 210 °C	CN(C)C(=O)C1CCCc2c1c1ccccc1n2Cc1ccccc1 (stereo not drawn)
155 to 157 °C	CC(C)(C)OC(=O)N1CCC(Cc2cn(S(=O)(=O)c3ccccc3)c3ccc(F)cc23)CC1
133 to 137 °C	CNCCOc1ccc(C2=C(c3ccccc3)CCCc3cc(OC4CCCCO4)ccc32)cc1 (stereo not drawn)
65 to 67 °C	CC(CCO)C(c1cc(F)ccc1F)S(=O)(=O)c1ccc(Cl)cc1 (stereo not drawn)
199 to 200 °C	COc1cc(OC(=O)c2ccc(OC)c(C34CC5CC(CC(C5)C3)C4)c2)ccc1C(=O)O
190 to 191 °C	Nc1ccccc1NS(=O)(=O)c1ccc([N+](=O)[O-])cc1
223 °C	O=C(NNS(=O)(=O)c1cccc(F)c1)c1ccc2oc3ccccc3c2c1
198 to 199 °C	CC(NC(=O)c1ccc(N)cc1)C(=O)O (stereo not drawn)
282 to 284 °C	O=c1[nH]c(S)nnc1-c1cc(O)c(O)c([N+](=O)[O-])c1
87 to 88 °C	O=[N+]([O-])c1ccc2c(c1)OC(CC(F)(F)F)(C(F)(F)F)O2 (stereo not drawn)
145 to 146 °C	COC(=O)CC(O)CP(=O)(C#Cc1c(-c2ccc(F)cc2)c2n(c1C(C)C)CCCC2)OC (stereo not drawn)
175 to 176 °C	CCOCc1nc2c(N)nc3ccc(CCc4ccccc4)cc3c2n1CC(C)(C)O
200 to 201 °C	N#Cc1ccc(F)cc1-c1cc(-c2cnc3nc(C(F)(F)F)cnn23)ccc1F

SMILES	melting point
N#CCc1nnc2n1-c1ccc(Cl)cc1C(c1ccccc1)=NC2	198 to 201 °C
ON=CN1CCCC1C1=Nc2ccc(Cl)cc2C(c2ccccc2F)=NC1 (stereo not drawn)	175 to 178 °C
COc1cc(OCCN2C3C=C(c4ccc5ccccc5c4)CC2CC3)c2ncccc2c1 (stereo not drawn)	100 to 103 °C
